Reference: article PMC11388281, “Prevotella are major contributors of sialidases in the human vaginal microbiome” (Proceedings of the National Academy of Sciences of the …, 2024)

Columns and labels:
Experiment in all cases: fluorescence sialidase assay with 4-MU-Neu5Ac
Type in all cases: biochemical
GvNanH3 = biological target: T1, GvNanH3 (Gardnerella vaginalis, UniProt S4HLQ0)
T1 construct: full-length gene in pET28a, N-terminal His6 tag, E. coli BL21(DE3)
Description: fluorescence sialidase assay with 4-MU-Neu5Ac on GvNanH3 | All enzymes were inhibited by the well-characterized, broad-spectrum sialidase inhibitor, Neu5ac2en

PtNanH2 = biological target: T2, PtNanH2 (Hoylesella timonensis, UniProt D1VWZ8)
T2 construct: gene HMPREF9019_0332; full-length gene in pET28a, N-terminal His6 tag, E. coli BL21(DE3); 1,030 amino acids incl. predicted signal peptide

PtNanH1 = biological target: T3, PtNanH1 (Hoylesella timonensis, UniProt D1VY87)
T3 construct: gene HMPREF9019_1088; full-length gene in pET28a, N-terminal His6 tag, E. coli BL21(DE3); 413 amino acids incl. predicted signal peptide

PbNanH = biological target: T4, PbNanH (Prevotella bivia, UniProt I4ZBT3); details: 100 µM 4-MU-Neu5Ac, 5 nM enzyme, sodium acetate pH 5.5, 37 °C
T4 construct: gene PrebiDRAFT_2006; full-length gene in pET28a, N-terminal His6 tag, E. coli BL21(DE3)
Description: fluorescence sialidase assay with 4-MU-Neu5Ac on PbNanH | All enzymes were inhibited by the well-characterized, broad-spectrum sialidase inhibitor, Neu5ac2en

PdNanH = biological target: T5, PdNanH (Prevotella denticola, UniProt F0H7U2); details: 100 µM 4-MU-Neu5Ac, 5 nM enzyme, sodium acetate pH 5.5, 37 °C
T5 construct: gene HMPREF9303_0049; full-length gene in pET28a, N-terminal His6 tag, E. coli BL21(DE3); predicted signal peptide
Description: fluorescence sialidase assay with 4-MU-Neu5Ac on PdNanH | All enzymes were inhibited by the well-characterized, broad-spectrum sialidase inhibitor, Neu5ac2en

SMILES | IC50 (GvNanH3) | IC50 (PtNanH2) | IC50 (PtNanH1) | IC50 (PbNanH) | IC50 (PdNanH)
CC(=O)N[C@H]1[C@H]([C@H](O)[C@H](O)CO)OC(C(=O)O)=C[C@@H]1O [Neu5Ac2en] | 29 ± 5.6 µM | 56 ± 23 µM | 180 ± 92.3 µM | 103 ± 20.3 µM | 50.5 ± 22.5 µM
CC(=O)N[C@H]1[C@H]([C@H](O)[C@H](O)CO)OC(C(=O)O)=C[C@@H]1N=C(N)N [Zanamivir] |  | 33.6 ± 15.5 µM |  |  | 
